For orientation: IC50 means the point on the concentration scale where inhibition reaches its midpoint. As usually defined, the melting point is the temperature of the solid-liquid transition.

Data on 15 molecules can be found in article PMC5462101 (Future medicinal chemistry, 2015).

Data set [1] can be described thus: Inhibition of linoleic acid peroxidation (AAPH). Conditions: linoleic acid peroxidation initiated by AAPH, 37 °C, pH 7.4. An excerpt: Azo compounds that generate free radicals through spontaneous thermal decomposition are useful for in vitro studies of free radical production. The water-soluble AAPH has been extensively used as a clean and controllable source of thermally produced alkylperoxyl free radicals. […] Evidently, the presence of 6,7-dimethyl groups on the pteridine ring greatly enhances protection against lipid peroxidation; the nature of the alkyl group and ring size on the 2-substituent has some, but much less, effect. […] The role of lipophilicity (as assessed from calculated clogP values; Table 1) is not clear, but substituent bulk plays a significant role.
Inhibition of linoleic acid peroxidation
Production of conjugated diene hydroperoxide by oxidation of linoleic acid in an aqueous dispersion was monitored at 234 nm. 2,2’-Azobis(2-amidinopropane) dihydrochloride (AAPH) was used as a free radical initiator. This assay was used to follow oxidative changes and to determine the inhibition of the peroxidation of sodium linoleate by each tested compound. A dispersion of sodium linoleate (16 mM, 10 μL) was added to the UV cuvette containing phosphate buffer (0.05 M, 0.93 mL) at pH 7.4 and kept in a thermostat at 37 °C. The oxidation reaction was initiated at 37 °C under air by the addition of AAPH solution (40 mM, 50 μL). Oxidation was carried out in the presence of aliquots (10 μL) of the tested compound. In the assay without antioxidant, lipid oxidation was measured in the presence of DMSO (10 μL). The rate of oxidation at 37 °C was monitored by recording the increase in absorption at 234 nm caused by conjugated diene hydroperoxide formation (Table 2).
(§1) IC50 determinations. OriginPro 8 was used to determine IC50 values from the sigmoidal line fitted to a graph of log[concentration] against the average percentage inhibition from two independent experiments, with at least 6 different concentrations. The SEM is the calculated standard error in the IC50 value of the fitted line.

The target of a further data set is T1, soybean lipoxygenase (Glycine max, UniProt P08170).
T1 construct: purchased Sigma
T1 sequence (P08170 1-839): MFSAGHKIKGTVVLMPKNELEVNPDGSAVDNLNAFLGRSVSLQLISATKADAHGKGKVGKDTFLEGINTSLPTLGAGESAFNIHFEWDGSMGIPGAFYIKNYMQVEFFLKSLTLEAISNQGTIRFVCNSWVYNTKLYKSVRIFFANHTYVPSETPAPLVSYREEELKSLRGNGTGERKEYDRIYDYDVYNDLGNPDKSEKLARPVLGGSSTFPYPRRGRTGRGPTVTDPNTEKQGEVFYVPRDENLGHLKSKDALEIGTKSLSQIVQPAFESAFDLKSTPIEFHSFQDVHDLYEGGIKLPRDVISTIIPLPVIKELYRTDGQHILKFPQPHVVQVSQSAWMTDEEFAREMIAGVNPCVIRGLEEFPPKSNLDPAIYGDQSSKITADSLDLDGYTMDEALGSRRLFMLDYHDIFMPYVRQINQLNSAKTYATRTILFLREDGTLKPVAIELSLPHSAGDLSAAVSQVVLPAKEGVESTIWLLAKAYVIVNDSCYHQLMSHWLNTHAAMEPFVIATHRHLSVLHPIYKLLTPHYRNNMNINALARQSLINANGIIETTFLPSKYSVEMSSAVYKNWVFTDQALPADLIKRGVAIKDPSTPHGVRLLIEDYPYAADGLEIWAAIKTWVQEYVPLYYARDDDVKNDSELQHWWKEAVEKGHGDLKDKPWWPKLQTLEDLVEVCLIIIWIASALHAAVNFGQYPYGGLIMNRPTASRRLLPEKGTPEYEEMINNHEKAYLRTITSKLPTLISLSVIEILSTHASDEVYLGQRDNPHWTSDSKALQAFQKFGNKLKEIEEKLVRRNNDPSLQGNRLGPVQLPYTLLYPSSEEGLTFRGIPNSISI
The experiment in a line: Inhibition of soybean lipoxygenase. Type of data set: biochemical. As to conditions: for IC50: sodium linoleate 0.1 mM, read-out: Lipoxygenase inhibitory activity (IC50); for inhibition at 100 µM: compound at 100 µM, read-out: Lipoxygenase inhibitory activity (% at 100 µM). The procedure:
The substituted pteridines prepared were assayed for inhibition of soybean lipoxygenase (Table 1) (Supplementary Information). Many studies have used readily obtainable soybean lipoxygenase, which is a homologue of mammalian lipoxygenase and well examined. The availability of soybean LOX and its well-characterized crystal structure led to its use in this study.
Determination of soybean lipoxygenase inhibition
A solution in DMSO of each compound to be tested was incubated at room temperature with sodium linoleate (0.1 mM) and a solution of soybean lipoxygenase (EC 1.13.11.12) (1:9 x 10^4 w/v in saline, 0.2 mL, Sigma). The conversion of sodium linoleate to 13-hydroperoxylinoleic acid was monitored by observation at 234 nm and compared with the value of appropriate standard inhibitor (Table 1).
as §1

Data set [2] is described as follows: Reducing ability in DPPH assay. As to conditions: compound 100 μM. As for the experimental part:
Previous work has shown that pterins, their dihydro- and their tetrahydro-derivatives can each be antioxidants or pro-oxidants, depending on the particular conditions. In the present study, several assays were used to assess in vitro antioxidant activity in order to obtain representative information; each method involves the generation of a different radical.
Determination of reducing activity using 1,1-diphenyl-2-picrylhydrazyl radical (DPPH)
To a solution of DPPH in absolute ethanol was added an equal volume of the compound to be tested dissolved in DMSO (20 µL). From a stock solution (10 mM) was prepared a final solution of 100 µM for evaluation of the compounds. The absorbance at 517 nm was recorded after 20 and 60 min at room temperature (Table 2).
(In general: The DPPH test is a chemical assay of radical scavenging.)

A short description of data set [3]: Competition with DMSO for hydroxyl radicals. As to conditions: compound at 100 µM, Fe3+/ascorbic acid, DMSO 33 mM. As for the experimental part: Competition of the novel pteridine derivatives with dimethyl sulfoxide for hydroxyl radicals was measured. […] The majority of the derivatives were excellent scavengers of hydroxyl radicals with activity higher than the reference compound 6-hydroxy-2,5,7,8-tetramethylchroman-2-carboxylic acid (Trolox).
Competition of pteridine derivatives with DMSO for hydroxyl radicals
Hydroxyl radicals generated by the Fe^3+/ascorbic acid system were detected by determination of formaldehyde produced from the oxidation of DMSO, according to the procedure of Nash. The reaction mixture comprised ethylenediaminetetracetic acid (EDTA) (0.1 mM), Fe^3+ (167 μM), DMSO (33 mM) in phosphate buffer (50 mM, pH 7.4), ascorbic acid (10 mM) and the compound to be tested at 100 µM. After incubation at 37 °C for 30 min the mixture was quenched with aqueous trichloroacetic acid (17% w/v) (Table 2) and the percentage competition of the tested compounds with DMSO for hydroxyl radicals was determined (Table 2).

SMILES strings stand for the structures.

On to `CCN1CCN(CC)c2c1nc(N1CCN(C)CC1)nc2N1CCN(C)CC1` [Compound 10b], for which it took 10 ± 0.43 µM to reach half-maximal inhibition in data set [1] (IC50). Moreover, the half-inhibitory concentration (IC50) on soybean lipoxygenase worked out at 55 ± 0.2 µM. Moreover, in data set [2], the “RA (%) 100μM 20 min” value is listed as 98% and the “RA (%) 100μM 60 min” value came to 97%. Besides, the “Hydroxyl radicals scavenged (%)” value in data set [3] worked out at 98%.

As to `CC(Cc1ccc(O)c(O)c1)C(C)Cc1ccc(O)c(O)c1` (centres unmarked) [NDGA, Nordihydroguaiaretic acid, reference compound], in data set [2], the “RA (%) 100μM 20 min” value came out at 81% and the “RA (%) 100μM 60 min” value amounted to 83%.

In turn, `CCN1CCNc2nc(N3CCN(C)CC3)nc(N3CCN(C)CC3)c21` [Compound 10a] gave a melting point of 139 to 140 °C. Besides, in data set [1], the IC50 was 15 ± 0.2 µM. Further, the half-maximal inhibitory concentration (IC50) on soybean lipoxygenase was 5 ± 0.1 µM. Moreover, in data set [2], the “RA (%) 100μM 20 min” value was 79% and the “RA (%) 100μM 60 min” value is 81%. Also, in data set [3], the “Hydroxyl radicals scavenged (%)” value stood at 96%.

For the molecule `COc1ccccc1CNc1nc(N2CCN(C)CC2)nc2nccnc12` [Compound 18b], the IC50 in data set [1] stood at 21 ± 0.9 µM. Further, the inhibition at 100 µM at soybean lipoxygenase amounted to 40 ± 0.2%. In addition, in data set [2], the “RA (%) 100μM 20 min” value stood at 13% and the “RA (%) 100μM 60 min” value came out at 20%. The “Hydroxyl radicals scavenged (%)” value in data set [3] is on record as 90%.

In turn, `CN1CCN(c2nc(NCc3ccco3)c3nccnc3n2)CC1` [Compound 18e] had a melting point of 174 to 175 °C. It took 0.33 ± 0.03 µM to reach half-maximal inhibition in data set [1] (IC50). For the same molecule, at soybean lipoxygenase, the inhibition at 100 µM amounted to 24 ± 0.3%. For the same molecule, in data set [2], the “RA (%) 100μM 20 min” value stood at 10% and the “RA (%) 100μM 60 min” value is given as 17%. Moreover, the “Hydroxyl radicals scavenged (%)” value in data set [3] stood at 94%.

As to `Cc1c(C)c2c(c(C)c1O)CCC(C)(C(=O)O)O2` (centres unmarked) [Trolox, 6-hydroxy-2,5,7,8-tetramethylchroman-2-carboxylic acid, reference compound], the half-maximal inhibitory concentration (IC50) in data set [1] is 55.5 µM. Moreover, in data set [3], the “Hydroxyl radicals scavenged (%)” value is listed as 73%.

In turn, `CN1CCCN(c2nc(NCc3cccs3)c3nccnc3n2)CC1` [Compound 20b] displayed a melting point of 130 to 131 °C. Further, in data set [1], the IC50 turned out to be 41 ± 0.3 µM. In addition, the IC50 at soybean lipoxygenase turned out to be 62.5 ± 0.5 µM. In addition, in data set [2], the “RA (%) 100μM 20 min” value is 15% and the “RA (%) 100μM 60 min” value amounted to 19%. For the same molecule, in data set [3], the “Hydroxyl radicals scavenged (%)” value turned out to be 94%.

The molecule `CCN1CCN(c2nc(NCc3cccs3)c3nccnc3n2)CC1` [Compound 20a] registered a melting point of 148 to 149 °C. In data set [1], the midpoint of inhibition, the IC50, lay at 20 ± 0.5 µM. For the same molecule, the IC50 on soybean lipoxygenase was determined as 43 ± 0.7 µM. Further, in data set [2], the “RA (%) 100μM 20 min” value worked out at 4% and the “RA (%) 100μM 60 min” value amounted to 11%. Also, in data set [3], the “Hydroxyl radicals scavenged (%)” value turned out to be 92%.

In data set [1], `CN1CCN(c2nc(N3CCN(C)CC3)c3nccnc3n2)CC1` [Compound 9] showed a half-inhibitory concentration (IC50) of 0.73 ± 0.2 µM. In addition, the concentration for half-maximal inhibition (IC50) at soybean lipoxygenase stood at 5 ± 0.1 µM. Besides, in data set [2], the “RA (%) 100μM 20 min” value turned out to be 8% and the “RA (%) 100μM 60 min” value is on record as 14%. In data set [3], the “Hydroxyl radicals scavenged (%)” value is on record as 96%.

On to `OC1CCCN(c2nc(N3CCCC(O)C3)c3nccnc3n2)C1` (centres unmarked) [Compound 13], for which inhibition in data set [1] was half-maximal at 0.33 ± 0.01 µM (IC50). On soybean lipoxygenase, the IC50 stood at 60 ± 0.3 µM. For the same molecule, in data set [2], the “RA (%) 100μM 20 min” value worked out at 6% and the “RA (%) 100μM 60 min” value came to 13%. Also, the “Hydroxyl radicals scavenged (%)” value in data set [3] turned out to be 95%.

For `CN1CCN(c2nc(N)c3nc(-c4ccccc4)c(-c4ccccc4)nc3n2)CC1` [Compound 5c], the melting point lay in the range of 107 to 109 °C. Moreover, the IC50 in data set [1] came out at 0.5 ± 0.03 µM. The inhibition at 100 µM on soybean lipoxygenase is 22.5 ± 0.1%. Besides, in data set [2], the “RA (%) 100μM 20 min” value was 10% and the “RA (%) 100μM 60 min” value turned out to be 6%. The “Hydroxyl radicals scavenged (%)” value in data set [3] was 100%.

`CN1CCN(c2nc(NCCc3ccccc3)c3nccnc3n2)CC1` [Compound 18c] showed a melting point of 127 to 128 °C. Moreover, the IC50 in data set [1] amounted to 10 ± 0.1 µM. Moreover, on soybean lipoxygenase, the inhibition at 100 µM came to 22.5 ± 0.2%. Besides, in data set [2], the “RA (%) 100μM 20 min” value was 11% and the “RA (%) 100μM 60 min” value amounted to 18%. The “Hydroxyl radicals scavenged (%)” value in data set [3] was determined as 97%.

Molecule `Cc1nc2nc(N3CCN(C)CC3)nc(NCc3cccs3)c2nc1C` [Compound 18g] yielded a melting point of 89 to 90 °C. In data set [1], it took 0.1 ± 0.01 µM to reach half-maximal inhibition (IC50). Besides, the IC50 on soybean lipoxygenase was determined as 88.5 ± 1.2 µM. For the same molecule, in data set [2], the “RA (%) 100μM 20 min” value stood at 12% and the “RA (%) 100μM 60 min” value is 12%. Besides, the “Hydroxyl radicals scavenged (%)” value in data set [3] is reported as 100%.

Regarding `CN1CCN(c2nc(NCc3cccs3)c3nonc3n2)CC1` [Compound 23], the concentration for half-maximal inhibition (IC50) is 0.32 ± 0.02 µM in data set [1], roughly 0.3 µM in data set [1] (listed as 24) and 74 ± 3.5 µM at soybean lipoxygenase. The “RA (%) 100μM 20 min” value in data set [2] worked out at 16%. Besides, the “RA (%) 100μM 60 min” value in data set [2] is reported as 18%. Moreover, the “Hydroxyl radicals scavenged (%)” value in data set [3] was determined as 94%.

For `Cc1nc2nc(N3CCN(C)CC3)nc(N)c2nc1C` [Compound 5b], half-maximal inhibition in data set [1] (IC50) was put at 40 ± 0.8 µM. For the same molecule, the IC50 on soybean lipoxygenase stood at 100 ± 0.3 µM. Moreover, in data set [2], the “RA (%) 100μM 20 min” value amounted to 0% and the “RA (%) 100μM 60 min” value worked out at 13%. For the same molecule, the “Hydroxyl radicals scavenged (%)” value in data set [3] was 94%.
